Data as given in patent publication EP0872239A2 (ELI LILLY AND COMPANY, priority 1997, dated 1998).

What was measured:
cerebral focal stroke = experiment: experimental stroke / cerebral ischemia models (Assays 2 and 3); assay type: in vivo, rats; details: general statement on "such experiments"; no data given
Protocol: The methodology for testing the compound's effect in ameliorating ischemic cell damage after transient middle cerebral artery occlusion (Zhang, et al., Stroke 26, 1438-43, 1995) is given as one example.
Male rats weighing approximately 300 grams are anesthetized with 3.5% halothane and maintained with 1.0% halothane in 70% N2O and 30% O2 with the use of a face mask. Rectal remperature is maintained at 37°C throughout the surgical procedure. The right femoral artery and vein are cannulated for measuring blood gases before inducing ischemia, monitoring blood pressure during the surgery and administering compound.
Approximately 18 mm of 4-0 surgical nylon suture with a rounded tip is advanced from the external carotid artery into the lumen of the internal carotid artery until it blocks the origin of the middle cerebral artery (MCA). […] Infarct volume is measured blindly with the use of a Global Lab Image analysis program (Data Translation). The infarct area and the ipsilateral and contralateral hemispheric area are calculated in square millimeters by tracing the right and left hemispheres and the ischemic lesion on the computer screen. The volumes in cubic millimeters are determined by multiplying the area by the section interval thickness. Infarct volume is analyzed as a percentage of the whole hemisphere. […]

5-HT1C receptor = target: T1, 5-HT1C receptor (Homo sapiens, UniProt P28335); experiment: pharmacological studies, 5-HT1C receptor activity; details: stated in words only
T1 sequence (P28335 33-458): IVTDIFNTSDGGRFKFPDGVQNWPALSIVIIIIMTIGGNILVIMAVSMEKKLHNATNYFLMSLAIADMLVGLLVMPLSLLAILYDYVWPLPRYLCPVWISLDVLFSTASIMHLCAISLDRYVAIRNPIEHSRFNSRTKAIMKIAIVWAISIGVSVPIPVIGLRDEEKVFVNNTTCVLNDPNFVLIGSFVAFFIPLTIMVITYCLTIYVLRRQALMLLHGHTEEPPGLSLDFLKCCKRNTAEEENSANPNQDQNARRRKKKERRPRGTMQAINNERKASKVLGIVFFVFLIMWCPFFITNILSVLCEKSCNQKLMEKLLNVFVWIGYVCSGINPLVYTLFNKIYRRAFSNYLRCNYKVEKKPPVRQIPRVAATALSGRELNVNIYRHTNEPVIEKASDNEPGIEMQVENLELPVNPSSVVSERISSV

[1] = tested on: muscarinic cholinergic receptor; experiment: pharmacological studies, muscarinic cholinergic receptor activity; details: stated in words only

Cc1cc2c(s1)Nc1ccccc1N=C2N1CCN(C)CC1 [olanzapine, 2-methyl-4-(4-methyl-1-piperazinyl)-10H-thieno [2,3-b] [1,5] benzodiazepine]
effect in the treatment or inhibition of cerebral focal stroke (cerebral focal stroke): significant effect | active at the 5-HT1C receptor (5-HT1C receptor): active | muscarinic cholinergic receptor activity [1]: has muscarinic cholinergic receptor activity
